Data reported in patent EP0580459B1, “Substituted Phenylimidazolidins, their use as medicaments and their pharmaceutical compositions containing them” (HOECHST MARION ROUSSEL, priority 1992, dated 1994).

Tests used:
récepteur androgène = biological target: T1, récepteur androgène (Rattus norvegicus, UniProt P15207); assay: Relative binding affinity (ARL) for the androgen receptor: displacement of tritiated testosterone in prostate cytosol; set-up: species or system rats mâles Sprague. Dawley EOPS; conditions: Incubation 24 hours at 0°C; prostate cytosol of castrated rats; ARL=100 (CH)/(CX), testosterone = 100
T1 construct: Des aliquotes du surnageant obtenu (=cytosol), sont incubées 30 minutes et 24 heures à 0°C; from tissue; host or cells: prostate cytosol of castrated male Sprague-Dawley rats
T1 sequence (P15207 1-902): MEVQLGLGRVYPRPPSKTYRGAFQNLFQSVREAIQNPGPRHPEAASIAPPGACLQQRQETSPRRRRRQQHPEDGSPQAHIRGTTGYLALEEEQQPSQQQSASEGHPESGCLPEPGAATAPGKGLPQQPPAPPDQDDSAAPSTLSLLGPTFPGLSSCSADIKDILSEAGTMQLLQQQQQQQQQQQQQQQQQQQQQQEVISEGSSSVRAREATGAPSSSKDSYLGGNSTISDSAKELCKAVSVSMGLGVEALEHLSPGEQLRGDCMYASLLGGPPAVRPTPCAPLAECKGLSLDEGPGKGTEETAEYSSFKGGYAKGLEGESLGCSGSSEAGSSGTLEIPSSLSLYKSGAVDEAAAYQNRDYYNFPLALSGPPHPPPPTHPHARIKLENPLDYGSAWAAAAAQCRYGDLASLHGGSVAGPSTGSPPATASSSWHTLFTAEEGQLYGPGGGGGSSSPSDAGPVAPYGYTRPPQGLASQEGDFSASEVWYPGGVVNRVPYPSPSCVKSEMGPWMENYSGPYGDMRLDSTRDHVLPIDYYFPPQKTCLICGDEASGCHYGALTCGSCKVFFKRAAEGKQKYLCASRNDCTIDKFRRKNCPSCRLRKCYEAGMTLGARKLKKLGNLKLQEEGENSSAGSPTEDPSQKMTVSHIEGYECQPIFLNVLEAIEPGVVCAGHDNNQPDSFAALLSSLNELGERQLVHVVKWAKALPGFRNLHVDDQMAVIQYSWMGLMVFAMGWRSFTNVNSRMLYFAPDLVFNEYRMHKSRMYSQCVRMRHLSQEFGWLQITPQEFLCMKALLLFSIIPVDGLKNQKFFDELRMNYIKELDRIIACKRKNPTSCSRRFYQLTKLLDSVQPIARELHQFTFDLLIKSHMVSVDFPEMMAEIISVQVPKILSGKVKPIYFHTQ
Experimental: 1) Etude de l'affinité des produits de l'invention pour le récepteur androgène
Des rats mâles Sprague. Dawley EOPS de 180-200 g, castrés de 24 heures, sont sacrifiés, les prostates prélevées, pesées et homogénéisées à 0°C à l'aide d'un potter verre-verre, dans une solution tamponnée (Tris lOmM, saccharose 0,25M, PMSF (phénylméthanesulfonylfluoride) 0,1mM, Molybdate de sodium 20mM, HCl pH 7,4; auxquels on ajoute extemporanément 2mM de DTT (DL dithiothreitol), à raison de 1 g de tissu pour 8 ml de tampon.
L'homogénat est ensuite ultracentrifugé à 0°C, 30 minutes à 209 000 g.
Calcul de l'affinité relative de liaison (ARL).
On trace les 2 courbes suivantes : le pourcentage de l'hormone tritiée liée B/T en fonction du logarithme de la concentration de l'hormone de référence froide et B/T en fonction du logarithme de la concentration du produit froid testé. On détermine la droite d'équation I50=(B/Tmax + B/Tmin)/2. B/T max= % de l'hormone tritiée liée pour une incubation de cette hormone tritiée à la concentration (T). B/T min= % de l'hormone tritiée liée pour une incubation de cette hormone tritiée à la concentration (T) en présence d'un grand excès d'hormone froide (2500.10^-9M) .
Les intersections de la droite I50 et des courbes, permettent d'évaluer les concentrations de l'hormone de référence froide (CH) et du produit froid testé (CX) qui inhibent de 50 % la liaison de l'hormone tritiée sur le récepteur.

[1] = tested on: ornithine décarboxylase rénale; assay: Androgen / anti-androgen activity by assay of renal ornithine decarboxylase in castrated mice given testosterone propionate; format: in vivo, souris mâles SWISS; conditions: with testosterone propionate 3 mg/kg s.c., kidneys 20 hours after treatment, relative to controls given testosterone propionate only; for % d'inhibition de l'ODL Test A: Test A: percutaneous route, 1,5 mg/kg in 10 µl
Experimental: 2) Détermination de l'activité androgène ou anti-androgène des produits de l'invention à l'aide du dosage de l'ornithine décarboxylase.
- Protocole de traitement
20 heures après les traitements, les animaux sont sacrifiés, les reins prélevés, puis homogénéisés à 0°C , à l'aide d'un broyeur téflon-verre dans 10 volumes de tampon Tris-HCl 50 mM (pH 7,4) contenant 250 uM de phosphate de pyridoxal, 0,1 mM EDTA, et 5 mM de dithiothreitol. L'homogenat est ensuite centrifugé à 209000 g pendant 30 mn.
A 37°C, l'ornithine décarboxylase rénale transforme un mélange isotopique d'ornithine froide et d'ornithine tritiée en putrescine froide et putrescine tritiée.
La putrescine est ensuite recueillie sur des papiers sélectifs, échangeurs d'ions. Après séchage, l'excès d'ornithine tritiée et froide non transformée est éliminé, par 3 lavages d'ammoniaque 0,1 M. Les papiers sont séchés, puis la radioactivité est comptée après addition de scintillant Aqualite.
Les résultats sont exprimés en fmoles ([…]) de putrescine tritiée formée/heure/mg de protéines.
Test A : les produits sont administrés par voie percutanée à 1,5 mg/kg sous un volume de 10 µl. Test B : les produits sont administrés par voie orale à 1 mg/kg. Test C : les produits sont administrés par voie orale à 3 mg/kg.

Compound	ARL (affinité relative de liaison) (récepteur androgène)	% d'inhibition de l'ODL Test A [1] [%]	% d'inhibition de l'ODL Test B ([1]; Test B: oral route, 1 mg/kg) [%]	% d'inhibition de l'ODL Test C ([1]; Test C: oral route, 3 mg/kg) [%]
CC1(C)C(=O)N(c2ccc(C#N)c(C(F)(F)F)c2)C(=O)N1CCCCO [Exemple 1, 4-(4,4-diméthyl 2,5-dioxo 3-(4-hydroxybutyl) 1-imidazolidinyl) 2-(trifluorométhyl) benzonitrile]	31	40	36	
CC1(C)C(=O)N(c2ccc(C#N)c(C(F)(F)F)c2)C(=S)N1CCO [Exemple 2, 4-(4,4-diméthyl 3-(2-hydroxyéthyl) 5-oxo 2-thioxo 1-imidazolidinyl) 2-(trifluorométhyl) benzonitrile]	163	32		67
CC1(C)C(=O)N(c2ccc(C#N)c(C(F)(F)F)c2)C(=S)N1CCCO [Exemple 3, 4-(4,4-diméthyl 3-(3-hydroxypropyl) 5-oxo 2-thioxo 1-imidazolidinyl) 2-(trifluorométhyl) benzonitrile]		41		
CC1(C)C(=O)N(c2ccc(C#N)c(C(F)(F)F)c2)C(=S)N1CCCCO [Exemple 4, 4-(4,4-diméthyl 3-(4-hydroxybutyl) 5-oxo 2-thioxo 1-imidazolidinyl) 2-(trifluorométhyl) benzonitrile]	300	78		
COCCN1C(=S)N(c2ccc(C#N)c(C(F)(F)F)c2)C(=O)C1(C)C [Exemple 5, 4-(4,4-diméthyl 3-(2-méthoxyéthyl) 5-oxo 2-thioxo 1-imidazolidinyl) 2-(trifluorométhyl) benzonitrile]	81	62		
CC(C)N1C(=S)N(c2ccc(C#N)c(C(F)(F)F)c2)C(=O)C1(C)C [Exemple 6, 4-(4,4-diméthyl 3-(1-méthyléthyl) 5-oxo 2-thioxo 1-imidazolidinyl) 2-(trifluorométhyl) benzonitrile]	28	35		
